One block for each compound: values may come before it.
Key:
[1] = target: T1, IKZF2 (Homo sapiens, UniProt Q96SW2+Q9UKS7); assay: Western-blot assay of substrate protein degradation in hPBMCs, IKZF2; type: cell-based; settings: 24 hours of compound treatment
T1 construct: endogenous in cells; host or cells: hPBMCs (Milecell Biotechnologies)

[2] = target: T2, IKZF1 (Homo sapiens, UniProt Q13422+Q96SW2); assay: Western-blot assay of substrate protein degradation in hPBMCs, IKZF1; type: cell-based; settings: 24 hours of compound treatment
T2 construct: endogenous in cells; host or cells: hPBMCs (Milecell Biotechnologies)

[3] = target: T3, CK1α (Homo sapiens, UniProt P48729+Q96SW2); assay: Western-blot assay of substrate protein degradation in hPBMCs, CK1α; type: cell-based; settings: 24 hours of compound treatment
T3 construct: endogenous in cells; host or cells: hPBMCs (Milecell Biotechnologies)

[4] = target: T4, IKZF3 (Homo sapiens, UniProt Q96SW2+Q9UKT9); assay: Western-blot assay of substrate protein degradation in hPBMCs, IKZF3; type: cell-based; settings: 24 hours of compound treatment
T4 construct: endogenous in cells; host or cells: hPBMCs (Milecell Biotechnologies)

[5] = target: T5, GSPT1 (Homo sapiens, UniProt P15170+Q96SW2); assay: Western-blot assay of substrate protein degradation in hPBMCs, GSPT1; type: cell-based; settings: 24 hours of compound treatment
T5 construct: endogenous in cells; host or cells: hPBMCs (Milecell Biotechnologies)

[6] = system: Human acute T lymphocytic leukemia cells (Molt-4); assay: Tumor cell proliferation inhibition (CellTiter-Meiluncell Luminescent Cell Viability Assay), Molt-4; settings: MOLT-4, 96 h, read-out: inhibitory activity (IC50, nM) against tumor cells proliferation, Molt 4
[7] = target: T6, WEE1 (Homo sapiens, UniProt P30291+Q96SW2); assay: Western-blot assay of substrate protein degradation in hPBMCs, WEE1; type: cell-based; settings: 24 hours of compound treatment
T6 construct: endogenous in cells; host or cells: hPBMCs (Milecell Biotechnologies)

[8] = target: T7, human Cereblon WT GST-tagged protein (Homo sapiens, UniProt Q96SW2); assay: CRBN-binding affinity by HTRF (CEREBLON BINDING kit); settings: HTRF inhibitory activity, CEREBLON BINDING kit; read-out: HTRF IC50
T7 construct: purchased CISBIO 64BDCRBNPEH

[9] = compounds tested at 50 nM and 500 nM (concentration of the table not stated)
[10] = 50 nM and 500 nM tested (concentration behind the class not stated)

T1 sequence (Q9UKS7 whole entry): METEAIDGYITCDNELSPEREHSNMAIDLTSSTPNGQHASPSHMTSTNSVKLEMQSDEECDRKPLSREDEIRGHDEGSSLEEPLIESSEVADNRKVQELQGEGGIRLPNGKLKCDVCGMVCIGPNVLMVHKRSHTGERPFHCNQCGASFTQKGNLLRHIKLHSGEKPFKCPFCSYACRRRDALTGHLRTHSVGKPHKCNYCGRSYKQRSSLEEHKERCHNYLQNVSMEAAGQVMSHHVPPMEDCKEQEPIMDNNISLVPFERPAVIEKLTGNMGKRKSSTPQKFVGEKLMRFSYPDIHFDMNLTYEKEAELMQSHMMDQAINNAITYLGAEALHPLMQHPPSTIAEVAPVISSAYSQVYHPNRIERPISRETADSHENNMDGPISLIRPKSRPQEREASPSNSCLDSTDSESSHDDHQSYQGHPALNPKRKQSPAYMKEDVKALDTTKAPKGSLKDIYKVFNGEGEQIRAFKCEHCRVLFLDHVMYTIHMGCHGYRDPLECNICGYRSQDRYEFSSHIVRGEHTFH
T1 sequence (Q96SW2 whole entry): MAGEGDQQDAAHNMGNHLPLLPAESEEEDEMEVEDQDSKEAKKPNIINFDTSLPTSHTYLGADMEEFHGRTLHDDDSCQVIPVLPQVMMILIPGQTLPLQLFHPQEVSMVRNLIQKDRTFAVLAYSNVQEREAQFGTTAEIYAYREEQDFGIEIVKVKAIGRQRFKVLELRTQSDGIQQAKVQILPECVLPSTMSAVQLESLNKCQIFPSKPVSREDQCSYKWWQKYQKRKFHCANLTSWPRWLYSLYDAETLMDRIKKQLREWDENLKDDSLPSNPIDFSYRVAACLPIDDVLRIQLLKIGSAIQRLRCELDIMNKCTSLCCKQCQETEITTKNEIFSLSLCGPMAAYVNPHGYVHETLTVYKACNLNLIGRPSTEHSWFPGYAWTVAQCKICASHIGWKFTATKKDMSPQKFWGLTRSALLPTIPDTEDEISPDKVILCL
T1 sequence (Q16531 whole entry partner): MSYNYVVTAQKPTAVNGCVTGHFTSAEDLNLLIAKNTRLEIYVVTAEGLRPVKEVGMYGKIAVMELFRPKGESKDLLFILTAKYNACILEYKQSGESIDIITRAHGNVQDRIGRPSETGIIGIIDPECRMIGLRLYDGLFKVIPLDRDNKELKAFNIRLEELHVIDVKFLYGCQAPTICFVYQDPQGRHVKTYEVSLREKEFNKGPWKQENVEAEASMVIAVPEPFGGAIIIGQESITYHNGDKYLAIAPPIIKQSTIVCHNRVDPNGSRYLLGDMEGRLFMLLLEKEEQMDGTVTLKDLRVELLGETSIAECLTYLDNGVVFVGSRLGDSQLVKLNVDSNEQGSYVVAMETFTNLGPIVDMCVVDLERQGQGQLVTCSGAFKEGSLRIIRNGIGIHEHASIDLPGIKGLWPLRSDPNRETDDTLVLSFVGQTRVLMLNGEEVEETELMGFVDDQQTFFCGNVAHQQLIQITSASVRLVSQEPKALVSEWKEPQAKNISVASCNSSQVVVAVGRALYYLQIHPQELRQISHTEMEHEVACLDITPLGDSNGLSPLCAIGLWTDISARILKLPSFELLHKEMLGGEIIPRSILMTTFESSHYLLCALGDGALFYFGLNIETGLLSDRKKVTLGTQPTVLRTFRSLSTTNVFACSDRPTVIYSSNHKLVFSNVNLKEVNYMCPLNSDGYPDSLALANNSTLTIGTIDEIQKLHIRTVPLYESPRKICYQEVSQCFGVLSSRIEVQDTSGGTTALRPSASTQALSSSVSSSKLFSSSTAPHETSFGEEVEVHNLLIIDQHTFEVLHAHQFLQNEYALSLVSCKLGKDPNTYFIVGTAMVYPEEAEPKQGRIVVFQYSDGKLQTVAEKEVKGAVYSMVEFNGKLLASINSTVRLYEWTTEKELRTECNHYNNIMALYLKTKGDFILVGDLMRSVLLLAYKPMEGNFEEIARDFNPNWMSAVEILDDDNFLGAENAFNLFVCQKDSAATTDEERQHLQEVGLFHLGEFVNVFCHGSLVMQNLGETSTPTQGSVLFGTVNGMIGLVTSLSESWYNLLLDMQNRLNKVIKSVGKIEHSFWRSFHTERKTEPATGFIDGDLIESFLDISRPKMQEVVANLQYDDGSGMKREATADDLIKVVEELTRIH
T4 sequence (Q9UKT9 whole entry): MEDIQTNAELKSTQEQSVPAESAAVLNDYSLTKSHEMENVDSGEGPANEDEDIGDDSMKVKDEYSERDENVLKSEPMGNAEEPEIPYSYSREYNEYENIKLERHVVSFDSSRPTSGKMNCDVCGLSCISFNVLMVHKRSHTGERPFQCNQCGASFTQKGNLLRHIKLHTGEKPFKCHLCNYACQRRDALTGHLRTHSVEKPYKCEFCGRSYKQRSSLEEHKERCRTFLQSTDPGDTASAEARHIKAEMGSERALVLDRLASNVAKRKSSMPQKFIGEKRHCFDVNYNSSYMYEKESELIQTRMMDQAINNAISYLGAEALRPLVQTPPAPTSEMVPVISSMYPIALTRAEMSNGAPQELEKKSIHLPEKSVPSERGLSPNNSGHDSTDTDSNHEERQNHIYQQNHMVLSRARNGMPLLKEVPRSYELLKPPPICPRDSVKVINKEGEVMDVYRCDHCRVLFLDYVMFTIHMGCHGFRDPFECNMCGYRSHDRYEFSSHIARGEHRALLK
T4 sequence (Q96SW2 whole entry): as the sequence (Q96SW2 whole entry) above
T4 sequence (Q16531 whole entry partner): as the sequence (Q16531 whole entry partner) above
T3 sequence (P48729 whole entry): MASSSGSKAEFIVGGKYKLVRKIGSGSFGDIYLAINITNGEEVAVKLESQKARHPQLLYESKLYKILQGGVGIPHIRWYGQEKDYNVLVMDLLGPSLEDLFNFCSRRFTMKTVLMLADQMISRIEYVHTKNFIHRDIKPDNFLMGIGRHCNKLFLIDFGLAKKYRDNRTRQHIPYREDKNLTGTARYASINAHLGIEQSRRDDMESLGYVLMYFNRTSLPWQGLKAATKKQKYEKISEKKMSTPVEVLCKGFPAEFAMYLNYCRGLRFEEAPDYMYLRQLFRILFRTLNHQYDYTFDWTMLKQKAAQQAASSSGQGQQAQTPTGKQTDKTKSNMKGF
T3 sequence (Q96SW2 whole entry): as the sequence (Q96SW2 whole entry) above
T3 sequence (Q16531 whole entry partner): as the sequence (Q16531 whole entry partner) above
T7 sequence (Q96SW2 whole entry): as the sequence (Q96SW2 whole entry) above
T2 sequence (Q13422 whole entry): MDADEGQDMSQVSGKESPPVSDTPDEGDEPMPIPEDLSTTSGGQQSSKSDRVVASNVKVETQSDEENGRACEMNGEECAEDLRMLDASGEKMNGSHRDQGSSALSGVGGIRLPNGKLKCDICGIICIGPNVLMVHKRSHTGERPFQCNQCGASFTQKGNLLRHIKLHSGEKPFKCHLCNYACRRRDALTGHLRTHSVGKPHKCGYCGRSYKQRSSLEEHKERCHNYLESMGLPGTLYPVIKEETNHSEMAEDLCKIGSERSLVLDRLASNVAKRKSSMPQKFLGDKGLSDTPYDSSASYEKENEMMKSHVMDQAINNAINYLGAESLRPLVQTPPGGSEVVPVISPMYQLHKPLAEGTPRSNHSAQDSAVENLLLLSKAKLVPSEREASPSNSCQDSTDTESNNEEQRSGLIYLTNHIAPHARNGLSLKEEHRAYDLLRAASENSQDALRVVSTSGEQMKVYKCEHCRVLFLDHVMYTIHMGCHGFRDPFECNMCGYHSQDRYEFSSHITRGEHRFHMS
T2 sequence (Q96SW2 whole entry): as the sequence (Q96SW2 whole entry) above
T2 sequence (Q16531 whole entry partner): as the sequence (Q16531 whole entry partner) above
T5 sequence (P15170 whole entry): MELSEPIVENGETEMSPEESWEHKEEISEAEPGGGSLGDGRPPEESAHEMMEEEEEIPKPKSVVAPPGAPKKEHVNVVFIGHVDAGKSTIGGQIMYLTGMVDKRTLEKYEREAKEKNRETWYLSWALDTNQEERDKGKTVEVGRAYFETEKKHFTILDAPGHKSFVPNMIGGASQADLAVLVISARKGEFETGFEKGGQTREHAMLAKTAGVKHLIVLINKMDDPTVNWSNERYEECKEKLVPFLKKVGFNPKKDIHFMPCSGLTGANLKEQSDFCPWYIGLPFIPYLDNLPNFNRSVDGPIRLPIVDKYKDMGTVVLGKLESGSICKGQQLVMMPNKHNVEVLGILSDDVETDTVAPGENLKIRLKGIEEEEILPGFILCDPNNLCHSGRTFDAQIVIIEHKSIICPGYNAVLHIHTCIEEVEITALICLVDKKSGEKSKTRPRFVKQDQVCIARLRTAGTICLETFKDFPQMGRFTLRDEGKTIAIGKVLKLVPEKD
T5 sequence (Q96SW2 whole entry): as the sequence (Q96SW2 whole entry) above
T5 sequence (Q16531 whole entry partner): as the sequence (Q16531 whole entry partner) above

IC50 [6]: 50 to 100 nM | IC50 [8]: < 500 nM
Compound: Cc1ccsc1N1CCN(Cc2ccc3c(c2)CN(C2CCC(=O)NC2=O)C3=O)CC1 (stereo not shown) [GT-04582, 3-(5-((4-(3-methylthiophen-2-yl)piperazin-1-yl)methyl)-1-oxoisoindolin-2-yl)piperidine-2,6-dione]
IKZF2 substrate protein remaining % [1, 9]: A (0% ≤ substrate protein remaining % ≤ 80%) | IKZF 1 substrate protein remaining % [2, 9]: A (0% ≤ substrate protein remaining % ≤ 80%) | CK1a substrate protein remaining % [3, 9]: B (80%< substrate protein remaining %≤ 100%) | IKZF3 substrate protein remaining % [4, 9]: A (0% ≤ substrate protein remaining % ≤ 80%) | GSPT1 substrate protein remaining % [5, 9]: A (0% ≤ substrate protein remaining % ≤ 80%) | Weel substrate protein remaining % [7, 9]: A (0% ≤ substrate protein remaining % ≤ 80%)

IC50 [6]: 500 to 1000 nM | IC50 [8]: 500 to 1000 nM
Compound: O=C1CCC(N2Cc3cc(CN4CCN(c5nccc(Cl)c5F)CC4)ccc3C2=O)C(=O)N1 (stereo not shown) [GT-04610, 3-(5-((4-(4-chloro-3-fluoropyridin-2-yl)piperazin-1-yl)methyl)-1-oxoisoindolin-2-yl)piperidine-2,6-dione]
IKZF2 substrate protein remaining % [1, 9]: A (0% ≤ substrate protein remaining % ≤ 80%) | IKZF 1 substrate protein remaining % [2, 9]: A (0% ≤ substrate protein remaining % ≤ 80%) | CK1a substrate protein remaining % [3, 9]: A (0% ≤ substrate protein remaining % ≤ 80%) | IKZF3 substrate protein remaining % [4, 9]: A (0% ≤ substrate protein remaining % ≤ 80%) | GSPT1 substrate protein remaining % [5, 9]: A (0% ≤ substrate protein remaining % ≤ 80%) | Weel substrate protein remaining % [7, 9]: A (0% ≤ substrate protein remaining % ≤ 80%)

IC50 [6]: 50 to 100 nM | IC50 [8]: 500 to 1000 nM
Compound: O=C1CCC(N2Cc3cc(CN4CCC(c5ccco5)CC4)ccc3C2=O)C(=O)N1 (stereo not shown) [GT-04618, 3-(5-((4-(furan-2-yl)piperidin-1-yl)methyl)-1-oxoisoindolin-2-yl)piperidine-2,6-dione]
IKZF2 substrate protein remaining % [1, 9]: A (0% ≤ substrate protein remaining % ≤ 80%) | IKZF 1 substrate protein remaining % [2, 9]: A (0% ≤ substrate protein remaining % ≤ 80%) | CK1a substrate protein remaining % [3, 9]: B (80%< substrate protein remaining %≤ 100%) | IKZF3 substrate protein remaining % [4, 9]: A (0% ≤ substrate protein remaining % ≤ 80%) | GSPT1 substrate protein remaining % [5, 9]: A (0% ≤ substrate protein remaining % ≤ 80%) | Weel substrate protein remaining % [7, 9]: A (0% ≤ substrate protein remaining % ≤ 80%)

IC50 [6]: 500 to 1000 nM | IC50 [8]: < 500 nM
Compound: O=C1CCC(N2Cc3cc(CN4CC(c5ccnc6cc(F)ccc56)C4)ccc3C2=O)C(=O)N1 (stereo not shown) [GT-04651, 3-(5-((3-(7-fluoroquinolin-4-yl)azetidin-1-yl)methyl)-1-oxoisoindolin-2-yl)piperidine-2,6-dione]
IKZF2 substrate protein remaining % [1, 9]: A (0% ≤ substrate protein remaining % ≤ 80%) | IKZF 1 substrate protein remaining % [2, 9]: A (0% ≤ substrate protein remaining % ≤ 80%) | CK1a substrate protein remaining % [3, 9]: A (0% ≤ substrate protein remaining % ≤ 80%) | IKZF3 substrate protein remaining % [4, 9]: A (0% ≤ substrate protein remaining % ≤ 80%) | GSPT1 substrate protein remaining % [5, 9]: A (0% ≤ substrate protein remaining % ≤ 80%) | Weel substrate protein remaining % [7, 9]: B (80%< substrate protein remaining %≤ 100%)

IC50 [8]: 1500 to 1900 nM
Compound: O=C1CCC(N2Cc3cc(CNC45CC6CC(CC(C6)C4)C5)ccc3C2=O)C(=O)N1 (stereo not shown) [GT-06913, 3-(5-((((3s,5s,7s)-adamantan-1-yl)amino)methyl)-1-oxoisoindolin-2-yl)piperidine-2,6-dione]
IKZF2 substrate protein remaining % [1, 10]: A (0% ≤ substrate protein remaining % ≤ 80%) | IKZF 1 substrate protein remaining % [2, 10]: A (0% ≤ substrate protein remaining % ≤ 80%) | CK1a substrate protein remaining % [3, 10]: A (0% ≤ substrate protein remaining % ≤ 80%) | IKZF3 substrate protein remaining % [4, 10]: B (80%< substrate protein remaining %≤ 100%) | GSPT1 substrate protein remaining % [5, 10]: A (0% ≤ substrate protein remaining % ≤ 80%) | Weel substrate protein remaining % [7, 10]: A (0% ≤ substrate protein remaining % ≤ 80%)

Continued, compound first:

Compound: O=C1CCC(N2Cc3cc(CN4CCC(c5cccc6c(F)cccc56)CC4)ccc3C2=O)C(=O)N1 (stereo not shown) [GT-04664, 3-(5-((4-(5-fluoronaphthalen-1-yl)piperidin-1-yl)methyl)-1-oxoisoindolin-2-yl)piperidine-2,6-dione]
IKZF2 substrate protein remaining % [1, 9]: A (0% ≤ substrate protein remaining % ≤ 80%) | IKZF 1 substrate protein remaining % [2, 9]: A (0% ≤ substrate protein remaining % ≤ 80%) | CK1a substrate protein remaining % [3, 9]: A (0% ≤ substrate protein remaining % ≤ 80%) | IKZF3 substrate protein remaining % [4, 9]: A (0% ≤ substrate protein remaining % ≤ 80%) | GSPT1 substrate protein remaining % [5, 9]: A (0% ≤ substrate protein remaining % ≤ 80%) | IC50 [6]: 100 to 500 nM | Weel substrate protein remaining % [7, 9]: A (0% ≤ substrate protein remaining % ≤ 80%) | IC50 [8]: 500 to 1000 nM

Compound: Cc1ccsc1C1=CCN(Cc2cccc3c2C(=O)N(C2CCC(=O)NC2=O)C3=O)CC1 (stereo not shown) [GT-04731, 2-(2,6-dioxopiperidin-3-yl)-4-((4-(3-methylthiophen-2-yl)-3,6-dihydropyridin-1(2H)-yl)methyl)isoindoline-1,3-dione]
IKZF2 substrate protein remaining % [1, 9]: B (80%< substrate protein remaining %≤ 100%) | IKZF 1 substrate protein remaining % [2, 9]: B (80%< substrate protein remaining %≤ 100%) | CK1a substrate protein remaining % [3, 9]: B (80%< substrate protein remaining %≤ 100%) | IKZF3 substrate protein remaining % [4, 9]: B (80%< substrate protein remaining %≤ 100%) | GSPT1 substrate protein remaining % [5, 9]: A (0% ≤ substrate protein remaining % ≤ 80%) | IC50 [6]: 500 to 1000 nM | Weel substrate protein remaining % [7, 9]: B (80%< substrate protein remaining %≤ 100%)

Compound: CC1(C)[C@@H]2CC[C@]1(CS(=O)(=O)NCc1ccc3c(c1)CN(C1CCC(=O)NC1=O)C3=O)C(=O)C2 (stereo partly shown) [GT-06927]
IKZF2 substrate protein remaining % [1, 10]: B (80%< substrate protein remaining %≤ 100%) | IKZF 1 substrate protein remaining % [2, 10]: B (80%< substrate protein remaining %≤ 100%) | CK1a substrate protein remaining % [3, 10]: A (0% ≤ substrate protein remaining % ≤ 80%) | IKZF3 substrate protein remaining % [4, 10]: B (80%< substrate protein remaining %≤ 100%) | GSPT1 substrate protein remaining % [5, 10]: B (80%< substrate protein remaining %≤ 100%) | Weel substrate protein remaining % [7, 10]: B (80%< substrate protein remaining %≤ 100%) | IC50 [8]: 500 to 1000 nM

From EP4745137A1 (Gluetacs Therapeutics (Shanghai) Co., Ltd., priority 2023, dated 2025)
